Experiment [1] relates to Juvenile (Type I, IDDM) diabetes in NOD mice. As to the kind of experiment: Glucosuria in Non-Obese Diabetic (NOD) mice. Format: in vivo, mouse. As to conditions: three injections of 1 mg each, 3 days apart, at 25 weeks. On the procedure:
Juvenile (Type I, IDDM) diabetes in Non-Obese Diabetic (NOD) mice:
Peptides derived from natural casein: NOD mice are a commonly used model for research of autoimmune disease and human Juvenile Diabetes. Six week old female NOD mice received either one or two injections per week of 100 μg of peptides derived from natural casein, for a total of 5 or 10 treatments. Control mice received no treatment. The severity of disease was determined according to glucosuria, which was measured using Combi test sticks [Gross, D. J. et al. (1994), Diabetology, 37:1195]. Results were expressed as the percent of glucosuria-free mice in each sample over a 365-day period.
Synthetic peptides derived from casein: In another experiment, 6 week old female NOD mice received two injections per week of 100 μg of Synthetic peptides derived from casein for a total of 10 treatments, or three injections of 1 mg each, 3 days apart, for a total of 3 treatments. Control mice received no treatment. Results were expressed as the number of healthy mice in the various treated groups.

Experiment [2] deals with peripheral white blood cells of myeloablated, bone marrow transplanted mice. As to the kind of experiment: Leukocyte reconstitution in irradiated bone marrow transplant recipient mice. It counts as in vivo, mouse. As to conditions: BALB/c, 600 cGy, 1 mg per mouse i.p.
Experiment [3] concerns glucose metabolism in NOD mice. As to the kind of experiment: Intraperitoneal Glucose Tolerance Test (IPGTT) in NOD mice. Format: in vivo, mouse. Particulars: NOD mice, three injections of 1 mg each, 3 days apart; 25 weeks. On the procedure:
Intraperitoneal Glucose Tolerance Test (IPGTT): The glucose tolerance test is the definitive method for investigating glucose metabolism and diabetic tendencies in mammals. Twenty five (25) weeks after receiving Synthetic peptides derived from casein, response to a glucose load was assessed with an intraperitoneal glucose tolerance test. Glucose injection consisted of 1 g/kg body weight. Glycemic values were determined from blood drawn prior to test (0 minutes) and 60 minutes after loading.

Experiment [4] has as its system murine primary bone marrow cells (CFU-GEMM). Nature of the experiment: Multipotential colonies (CFU-GEMM) from murine bone marrow cells, colony and differential counts. It counts as cell-based, mouse. Particulars: 8 days treatment. On the procedure:
Proliferation of megakaryocytes in multipotential colonies (CFU-GEMM) from murine Bone Marrow cells: Primary bone marrow cells (1×10^5 per ml) from 8-12 week-old C3H/HeJ mice were grown in serum-free methyl cellulose-IMDM medium for 8-9 days at 5% CO2, 95% air, at 37° C. The medium, appropriate for the growth of multipotential colonies (CFU-GEMM), contained 1% BSA (Sigma), 10^−4 M thioglycerol (Sigma), 2.8×10^−4 M human transferrin (TF, Biological industries, Israel), 10% WEHI-CM as a source of IL-3 and 2 units per ml erythropoietin (rhEPO, R & D Systems, Minneapolis). […] They were picked with a micropipette, cytocentrifuged and stained with May-Grunwald-Giemsa for differential counts. At least 700 cells were counted for each preparation. […]

Where “and” joins values, the source holds several entries; their conditions need not be identical. Equal entries are not always repeated.

Regarding RPKHPIKHQGLPQEV [C], the “mice in which no glucosuria was detected” value in experiment [1] was 3 out of 5. Further, the “peripheral white blood cell count” value in experiment [2] (day 10) is on record as 1.72 ×10^6 cells per ml; in experiment [2] (day 12) it was 6.54 ×10^6 cells per ml. In addition, the “blood glucose values in response to a glucose load (IPTG test)” value in experiment [3] was 101 and 113 and 102.

In the case of RPKHPIKHQGLPQEVLNEN, the “mice in which no glucosuria was detected” value in experiment [1] is “two out of 5”. The “megakaryocyte formation and development (in words)” value in experiment [4] is given as “significant increase”. Besides, in experiment [3], the “blood glucose values in response to a glucose load (IPTG test)” value is less than 120.

Source of the values: patent publication US20070203060A1, “Casein Derived Peptides And Therapeutic Uses Thereof” (priority 2004, published 2007).
